The source of these data is ChEMBL document CHEMBL1125660, “Synthesis and aromatase inhibitory activity of novel 1-(4-aminophenyl)-3-azabicyclo[3.1.0]hexane- and -[3.1.1]heptane-2,4- diones” (J Med Chem, 1991).

As usually defined, the IC50 is the concentration needed to halve the response being measured.

The target of data set [1] is T1, Aromatase (Rattus norvegicus, UniProt P22443).
T1 sequence (P22443 whole entry): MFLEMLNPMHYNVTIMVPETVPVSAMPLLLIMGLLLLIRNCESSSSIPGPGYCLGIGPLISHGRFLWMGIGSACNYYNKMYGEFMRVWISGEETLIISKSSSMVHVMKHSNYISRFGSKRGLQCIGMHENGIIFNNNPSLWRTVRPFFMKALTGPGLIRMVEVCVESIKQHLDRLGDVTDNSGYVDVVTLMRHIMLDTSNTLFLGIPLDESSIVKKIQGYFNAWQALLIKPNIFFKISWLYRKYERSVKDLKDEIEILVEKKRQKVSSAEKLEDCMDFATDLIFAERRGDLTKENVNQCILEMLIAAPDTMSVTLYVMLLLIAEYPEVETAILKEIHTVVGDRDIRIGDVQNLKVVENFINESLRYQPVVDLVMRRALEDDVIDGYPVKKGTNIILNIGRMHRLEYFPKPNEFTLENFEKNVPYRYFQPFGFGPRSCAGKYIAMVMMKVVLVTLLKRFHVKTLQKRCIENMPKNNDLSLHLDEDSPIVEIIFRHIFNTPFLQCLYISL
Conditions: in vivo, po.

The target in data set [2] is T2, Steroid 17-alpha-hydroxylase/17,20 lyase (Homo sapiens, UniProt P05093).
T2 sequence (P05093 whole entry): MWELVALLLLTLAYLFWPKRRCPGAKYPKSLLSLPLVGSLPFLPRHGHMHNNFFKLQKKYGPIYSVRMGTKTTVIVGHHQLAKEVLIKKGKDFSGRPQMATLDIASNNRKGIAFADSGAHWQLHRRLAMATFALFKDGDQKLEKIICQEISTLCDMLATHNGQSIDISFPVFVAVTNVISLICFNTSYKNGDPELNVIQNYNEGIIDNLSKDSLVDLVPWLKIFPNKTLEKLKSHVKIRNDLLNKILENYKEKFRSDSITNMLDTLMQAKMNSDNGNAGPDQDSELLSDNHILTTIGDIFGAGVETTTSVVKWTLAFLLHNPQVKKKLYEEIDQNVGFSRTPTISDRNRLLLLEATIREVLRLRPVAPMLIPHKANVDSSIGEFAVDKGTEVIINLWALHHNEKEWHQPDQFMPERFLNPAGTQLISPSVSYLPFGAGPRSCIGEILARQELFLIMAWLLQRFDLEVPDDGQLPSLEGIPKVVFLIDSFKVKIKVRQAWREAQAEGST
Format: functional.

Data set [3] has as its target T3, Cytochrome P450 11B2, mitochondrial (Rattus norvegicus, UniProt P30099).
T3 sequence (P30099 whole entry): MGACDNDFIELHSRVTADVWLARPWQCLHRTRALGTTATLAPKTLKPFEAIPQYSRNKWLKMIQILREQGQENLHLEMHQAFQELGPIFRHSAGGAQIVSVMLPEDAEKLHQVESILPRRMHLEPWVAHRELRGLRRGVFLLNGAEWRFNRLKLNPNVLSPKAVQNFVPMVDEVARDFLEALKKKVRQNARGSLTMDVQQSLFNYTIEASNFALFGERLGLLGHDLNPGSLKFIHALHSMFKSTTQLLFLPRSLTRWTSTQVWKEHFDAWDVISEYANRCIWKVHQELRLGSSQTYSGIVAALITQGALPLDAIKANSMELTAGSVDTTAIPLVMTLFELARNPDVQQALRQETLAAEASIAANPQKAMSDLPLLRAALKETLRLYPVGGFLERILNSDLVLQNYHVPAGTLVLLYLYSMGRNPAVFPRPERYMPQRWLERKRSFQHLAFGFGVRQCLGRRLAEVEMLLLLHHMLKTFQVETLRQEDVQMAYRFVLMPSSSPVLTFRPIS

The species named for data set [4] is Rattus norvegicus. Format: functional. Conditions: dose 62.5 mg/kg; route oral.
For data set [5], the species on record is Rattus norvegicus. The data set is classed as functional. Conditions: dose 15.6 mg/kg.
The species named for data set [6] is Rattus norvegicus. Format: functional. Conditions: dose 31.3 mg/kg; route oral.
Data set [7] is filed under the species Rattus norvegicus. The data set is classed as functional. Conditions: dose 25.6 mg/kg; route oral.
Data set [8] is filed under the species Rattus norvegicus. Format: functional. Conditions: dose 15.6 mg/kg; route oral.
Data set [9] concerns the target T3, Cytochrome P450 11B2, mitochondrial. This is another data set of the same source.
The species named for data set [10] is Rattus norvegicus. The data set is classed as functional. Conditions: dose 15.6 mg/kg. This is another data set of the same source.
For data set [11], the species on record is Rattus norvegicus. The data set is classed as functional. Conditions: dose 62.5 mg/kg.
For data set [12], the species on record is Rattus norvegicus. The data set is classed as functional. Conditions: dose 31.3 mg/kg.
The species named for data set [13] is Rattus norvegicus. The data set is classed as functional. Conditions: dose 31.3 mg/kg; route oral. The source holds these as a separate data set.
The species entered for data set [14] is Rattus norvegicus. The data set is classed as functional.
The species named for data set [15] is Rattus norvegicus. Format: functional. Conditions: dose 31.3 mg/kg; route oral. The source holds these as a separate data set.
Data set [16] is filed under the species Rattus norvegicus. The data set is classed as functional. Conditions: dose 62.5 mg/kg; route oral. The source holds these as a separate data set.
Data set [17] is filed under the species Rattus norvegicus. The data set is classed as functional. Conditions: dose 15.6 mg/kg; route oral. The source holds these as a separate data set.
The species entered for data set [18] is Rattus norvegicus. Format: functional. Conditions: dose 12.5 mg/kg.
The species entered for data set [19] is Rattus norvegicus. Format: functional. Conditions: dose 62.5 mg/kg; route oral. This is another data set of the same source.
For data set [20], the species on record is Rattus norvegicus. Format: functional. Conditions: dose 62.5 mg/kg; route oral. The source holds these as a separate data set.
Data set [21] is filed under the species Rattus norvegicus. The data set is classed as functional. Conditions: dose 125 mg/kg; route oral.
For data set [22], the species on record is Rattus norvegicus. Format: functional. Conditions: dose 31.3 mg/kg. The source holds these as a separate data set.
The species entered for data set [23] is Rattus norvegicus. The data set is classed as functional. Conditions: dose 125 mg/kg; route oral. This is another data set of the same source.
The species named for data set [24] is Rattus norvegicus. Format: functional. Conditions: dose 125 mg/kg; route oral. This is another data set of the same source.
Data set [25] concerns the target T1, Aromatase. Conditions: in vivo, po. This is another data set of the same source.
Data set [26] deals with T3, Cytochrome P450 11B2, mitochondrial. The source holds these as a separate data set.
In data set [27] the target is T2, Steroid 17-alpha-hydroxylase/17,20 lyase. Format: functional. The source holds these as a separate data set.
The species entered for data set [28] is Rattus norvegicus. Format: functional. The source holds these as a separate data set.
The species entered for data set [29] is Rattus norvegicus. Format: functional. Conditions: dose 100 mg/kg; route oral.
The species entered for data set [30] is Rattus norvegicus. The data set is classed as functional. Conditions: dose 30 mg/kg; route oral.
The target in data set [31] is T3, Cytochrome P450 11B2, mitochondrial. This is another data set of the same source.
The species entered for data set [32] is Rattus norvegicus. The data set is classed as functional. Conditions: dose 30 mg/kg; route oral. The source holds these as a separate data set.
The species named for data set [33] is Rattus norvegicus. Format: functional. Conditions: dose 30 mg/kg; route oral. This is another data set of the same source.
The species named for data set [34] is Rattus norvegicus. Format: functional. Conditions: dose 100 mg/kg; route oral. The source holds these as a separate data set.
For data set [35], the species on record is Rattus norvegicus. The data set is classed as functional. Conditions: dose 100 mg/kg; route oral. This is another data set of the same source.
Data set [36] is filed under the species Rattus norvegicus. Format: functional. Conditions: dose 30 mg/kg.
Data set [37] is filed under the species Rattus norvegicus. The data set is classed as functional. Conditions: dose 30 mg/kg; route oral. This is another data set of the same source.
The species named for data set [38] is Rattus norvegicus. Format: functional. Conditions: dose 100 mg/kg.

The compound `Nc1ccc(C23CC(C2)C(=O)N(C2CCCCC2)C3=O)cc1` yielded an ED in data set [1] of 0.3 mg/kg. The IC50 in [2] and in data set [3] was 140 µM in each case.
`Nc1ccc(C23CC2C(=O)N(CC2CCCCC2)C3=O)cc1` (stereo unspecified): the Response is reported as 4.1% in data set [4]; 30% in data set [6]; 4.3% in [7]; 17.4% in [8]; 55% in data set [13]; 15% in data set [15]. Moreover, the Response in [16] is reported as 91.6%; in data set [17] it was 78.3%; in [19], 4.2%; in data set [21], 0%; in data set [23], 82.6%; in data set [24] it was 5%. Moreover, the No. of tumors in data set [5] is given as 23; in data set [14], 23; in [20], 24; in [22], 20. The half-maximal inhibitory concentration (IC50) in data set [9] and in data set [2] was over 330 µM each time. Moreover, the New tumors in [10] is listed as 3; in [11] it was 0; in data set [12], 3; in data set [18], 0. Besides, in data set [1], the ED was determined as 1.5 mg/kg.
For the compound `Nc1ccc(C23CC2C(=O)N(CC2CCCCC2)C3=O)cc1` (stereo in doubt; (+)-1h), in data set [25], the ED was 1 mg/kg. In addition, the IC50 in data set [26] and in [27] was over 34 µM each time.
Consider `CCC1(c2ccc(N)cc2)CCC(=O)NC1=O` (stereo unspecified) [AMINOGLUTETHIMIDE], for which the No. of tumors in data set [28] came out at 18; in [30], 24. Besides, the Response turned out to be 66.6% in [29]; 91.6% in data set [32]; 4.25% in data set [33]; 22.2% in data set [34]; 11.2% in data set [35]; 4.1% in data set [37]. Further, the IC50 in data set [31] came to 110 µM; in data set [27] it was 60 µM. Moreover, the results for the New tumors in [36] and in data set [38] were 4 and 5, respectively.
